Assay results as given in US20250263439A1, “HETERODIMERIC PEPTIDE REAGENTS AND METHODS” (REGENTS OF THE UNIVERSITY OF MICHIGAN, priority 2018, published 2025).
Where “and” joins values, the source holds several entries; their conditions need not be identical. Equal values may be shown once. Entries after “also recorded” stand apart in the source; their conditions may differ. Values belong to the compound of their own block, whether it stands above or below them. Bridge positions count the residues as written; N and C are the ends. Square brackets hold non-standard residues; d marks the D form. Ends that are not written are not given here. Peptide text beside a SMILES is read from it. I, II: the chains in the order shown. * marks the point of attachment. X1 = CC1(C)C(=CC=C2CCCC(C=CC3=[N+](CCCCCC(=O)NCCN4C(=O)CC(*)C4=O)c4ccc(S(=O)(=O)O)cc4C3(C)C)=C2Oc2ccc(S(=O)(=O)O)cc2)N(CCCCS(=O)(=O)[O-])c2ccc(S(=O)(=O)O)cc21; AEEEA = NCCOCCOCCOCC(=O)O

Experiments:
[1] = tested on: EGFR and ErbB2 mediated signaling; experiment: Effect on downstream cell signaling in SKBr3 cells (Western blot); type: cell-based, human
Protocol: The effect of heterodimer binding on downstream signaling was evaluated in SKBr3 cells. SKBr3 cells were seeded in 6-well flat-bottom plates. […] EGF (#E9644, Sigma) was reconstituted to 1 mg/mL using 10 mM acetic acid, diluted with 0.1% BSA, and added to SKBr3 cells at a concentration of 100 ng/mL. Lapatinib (CDS022971, Sigma) was diluted to 100 nM in DMSO and PBS from 1 mg/mL stock solution, and was added to the cells incubated with heterodimer at concentrations of 1, 5, and 20 μM in separate wells.

[2] = tested on: OE19, OE21, OE33 and SKBr3 cancer cells; experiment: Cytotoxicity of IRDye800 heterodimer in panel of human cancer cells; type: cell-based; conditions: 48 hours, concentrations up to 500 μg/mL
[3] = tested on: SKBr3 cells; experiment: Confocal cell surface binding of IRDye800 heterodimer to cell panel; type: cell-based, human
Protocol: Confocal microscopy was performed to validate specific heterodimer binding. […] AF568-labeled anti-EGFR and AF488-labeled anti-HER2 antibodies were used as positive controls to confirm EGFR and HER2 expression by the cell panel. Heterodimer and antibody binding to the surface (arrows) of SKBr3 cells co-localize, and a Pearson's coefficient of ρ=0.58 and 0.65 was measured for EGFR and HER2, respectively, on merged images, FIG. 23A-F.

[4] = tested on: human OE33 xenograft tumors; experiment: In vivo fluorescence (FL) imaging of OE33 xenograft tumors (IRDye800); design: species or system mice; conditions: for Fluorescence T/B ratio, mean (±SD): 2 hours post-injection, n=6 mice
Protocol: (§1) FL and PA images were collected following systemic administration of QRH*-KSP*-E3-IRDye800 and (GGGAGGG (SEQ ID NO: 28))2-E3-IRDye800 (control) in human OE33 xenograft tumors to characterize pharmacokinetics. […] The mean intensity for either modality regressed to baseline at ˜24 hours post-injection.

[5] = tested on: human OE33 xenograft tumors; experiment: In vivo photoacoustic (PA) imaging of OE33 xenograft tumors (IRDye800); design: species or system mice; conditions: for Photoacoustic T/B ratio, mean: 2 hours post-injection
Protocol: as §1
Dual-modal images were collected at 2 hours following heterodimer injection to assess imaging depth. […] An ultrasound image confirmed tumor structure, FIG. 20D.

[6] = tested on: human OE33 xenograft tumors; experiment: Biodistribution of IRDye800 heterodimer in major organs; design: species or system mice; conditions: mouse, in vivo
Protocol: (§2) Tumor-bearing mice were sacrificed at 2 hours post-injection of heterodimer or control peptide.

[7] = FL intensity in serum of tumor bearing mice over 48 hours; type: in vivo; conditions: mouse, 45 nmol
Protocol: FIG. 19A) White light and FIG. 19B) FL images (λex=800 nm) are shown of heterodimer distribution in major organs at 2 hours post-injection. FIG. 19C) Mean (±SD) fluorescence intensity for heterodimer and control peptide was shown from n=6 mice each. […] FIG. 19D) FL intensity from serum of tumor bearing mice injected with heterodimer (300 μM, 150 μL PBS, n=6) is shown over 48 hours. Blood prior to heterodimer injection is shown as control.
as §2

[8] = tested on: OE33 human xenograft tumor; experiment: Immunofluorescence of OE33 xenograft tumor sections ex vivo
Protocol: Immunofluorescence was performed to validate target expression in sections of OE33 human xenograft tumor ex vivo.

[9] = Marshall et al.; cited from earlier work
[10] = tested on: Flo1-HER2 cells; experiment: Confocal binding of FITC-labeled candidate peptides to Flo1-HER2 cells; type: cell-based; conditions: FITC label, among five leading candidates
Protocol: A FITC label was attached to each peptide, and binding to Flo1-HER2 and QhTERT cells (control) was imaged using confocal microscopy. […] From the model, this peptide was determined to bind to HER2 domain 3. The peptide was then labeled for deep tissue imaging with a Cy5.5 fluorophore via a GGGSK (SEQ ID NO: 3) linker on the C-terminus, hereafter KSP*-Cy5.5. Cy5.5 was chosen for high quantum yield and photostability. The linker prevents steric hindrance by spatially separating the fluorophore from the peptide. A scrambled sequence PPSNFKR (SEQ ID NO: 4) was developed for use as control by altering the conformationally rigid spacer PNP and moving both hydrophobic and hydrophilic amino acids at the C-terminus. This control peptide also was linked to Cy5.5 via GGGSK (SEQ ID NO: 3), hereafter PPS*-Cy5.5. […] The fluorescence emission peak occurs at 708 nm in the NIR spectrum.

[11] = tested on: OE33 cells; experiment: Apparent dissociation constant by flow cytometry with OE33 cells; type: binding, human; conditions: flow cytometry, 4° C.
Protocol: The apparent dissociation constant (Kd) was measured to assess binding affinity of the heterodimer to OE33 cells. The heterodimer was serially diluted in PBS at concentrations of about 0, 10, 25, 50, 100, and 200 nM with about […] at 4° C. for one hour and washed with cold PBS. The mean fluorescence intensities were measured with flow cytometry (BD LSRII, BD Biosciences). The equilibrium dissociation constant Kd 1/Ka was calculated with a least-squares fit of the data to the nonlinear equation I=(I0+ImaxKa[X])/(I0+Ka[X]). I0 and Imax are the initial and maximum fluorescence intensities, corresponding to no peptide and at saturation, respectively, and [X] represents the concentration of bound peptide. Prism 5.0 software (Graphpad Inc.) was used to calculate Kd and Ka.

[12] = tested on: OE33 cells; experiment: Apparent association time constant by flow cytometry with OE33 cells; type: binding, human; conditions: for apparent association time constant Ka: flow cytometry, 1 μM, 4° C.; for apparent association time constant (time): value in brackets after Ka
Protocol: The apparent association time constant (Ka) was measured to assess binding kinetics to OE33 cells. OE33 cells were grown to about 80% confluence in 10 cm dishes, and cells were then detached with PBS-based cell dissociation buffer (Invitrogen). About 10^5 cells were incubated with 1 μM of the heterodimer at 4° C. for different time periods ranging from […]. The cells were centrifuged, washed with cold PBS, and fixed with 4% PFA. Flow cytometry was performed, and the median fluorescence intensity (y) was ratioed with that of OE33 cells without addition of peptide at time points (t) using Flowjo software. The rate constant K was calculated by fitting the data to the first-order kinetics model, y(t)=Imax[1−exp^(−kt)], where Imax=maximum value, using Prism 5.0 software.

Compound: EGF (NSDSECPLSHDGYCLHDGVCMYIEALDKYACNCVVGYIGERCQYRDLKWWELR; Epidermal growth factor; UniProt P01133 971-1023, looked up) [an endogenous ligand for EGFR, positive control, reference compound]
p-AKT and p-ERK ([1]; EGF 100 ng/mL, positive control): strong phosphorylation activity; also recorded: increased expression

time of peak FL T/B ratio / intensity post-injection ([4]; intravenous): 2 h
time of regression of FL intensity to baseline / clearance ([4]; post-injection): ~24 h
time of peak PA T/B ratio / intensity post-injection ([5]; intravenous): 2 h
time of regression of PA intensity to baseline / clearance ([5]; post-injection): ~24 h
tumor uptake (biodistribution) [6]: high tumor uptake
half-life [7]: ~180 min
Compound: CC1(C)C(=CC=C2CCCC(C=CC3=[N+](CCCCCC(=O)NCCN4C(=O)CC(SC[C@H](NC(=O)[C@H](CCCCNC(=O)COCCOCCOCCNC(=O)[C@H](CCC(=O)O)NC(=O)[C@H](CCCNC(=N)N)NC(=O)[C@@H]5CCCN5C(=O)[C@H](CCCCN)NC(=O)[C@H](Cc5c[nH]cn5)NC(=O)[C@H](CCCNC(=N)N)NC(=O)[C@@H](N)CCC(N)=O)NC(=O)COCCOCCOCCNC(=O)[C@H](Cc5ccccc5)NC(=O)[C@H](CCCNC(=N)N)NC(=O)[C@@H]5CCCN5C(=O)[C@H](CC(N)=O)NC(=O)[C@@H]5CCCN5C(=O)[C@H](CO)NC(=O)[C@@H](N)CCCCN)C(N)=O)C4=O)c4ccc(S(=O)(=O)O)cc4C3(C)C)=C2Oc2ccc(S(=O)(=O)O)cc2)N(CCCCS(=O)(=O)[O-])c2ccc(S(=O)(=O)O)cc21 (stereo partly drawn) [QRH*-KSP*-E3-IRDye800] (I: H-KSPNPRF[AEEEA]KC(X1)-NH2 / II: H-QRHKPRE[AEEEA]; amide I:9-II:C)
cytotoxicity [2]: Negligible cytotoxicity; also recorded: No cytotoxicity
binding to surface of SKBr3 cells ([3]; confocal microscopy): Strong fluorescence intensity; also recorded: Strong binding
mean fluorescence intensity SKBr3 versus OE21, OE19, and QhTERT cells ([3]; paired t-test): significantly greater
Fluorescence T/B ratio, mean (±SD) [4]: 3.89±0.94
mean FL T/B ratio versus control peptide or PBS ([4]; mouse, in vivo): significantly greater
Photoacoustic T/B ratio, mean [5]: 2.44±0.36
mean PA T/B ratio versus control peptide or PBS ([5]; mouse, in vivo): significantly greater
T/B ratio ([8]; OE33 xenograft tumor sections, 3 boxes of 20×20 μm2): 5.0±0.8
binding to surface of OE33 xenograft tumor cells ([8]; immunofluorescence of sections): strong binding

Compound: IRDye800
safety in animals [9]: safe

Compound: CS(=O)(=O)CCNCc1ccc(-c2ccc3ncnc(Nc4ccc(OCc5cccc(F)c5)c(Cl)c4)c3c2)o1 [lapatinib, reference compound]
expression of phosphorylated EGFR / ErbB2 / AKT / ERK ([1]; 100 nM lapatinib): reduced expression

Compound: (GGGAGGG)2-E3-IRDye800: control peptide for the IRDye800 heterodimer (also: dimer via E3 linker, IRDye800 label) [reference compound]
Fluorescence T/B ratio, mean (±SD) [4]: 3.89±0.94
Photoacoustic T/B ratio, mean [5]: 1.44±0.21

Compound: KSPNPRF (also: FITC label)
mean fluorescence intensity with binding to Flo1-HER2 [10]: highest mean fluorescence intensity

Compound: QRH*-GGGSK-Cy5.5 (QRHKPREGGGSK-NH2; also: Cy5.5 label on C-terminal Lys side chain) [QRH*-Cy5.5]
Kd [11]: 98 nM
apparent association time constant Ka [12]: 0.21 min⁻¹
apparent association time constant (time) [12]: 4.7 min and 4.8 min

Compound: KSP*-GGGSK-Cy5.5 (KSPNPRFGGGSK-NH2; also: Cy5.5 label on C-terminal Lys side chain) [KSP*-Cy5.5]
Kd [11]: 54 nM
apparent association time constant Ka [12]: 0.35 min⁻¹
apparent association time constant (time) [12]: 2.8 min and 2.9 min
